Values quoted from earlier work as cited in patent publication US9370632B2, “Nasal treatment delivery device for mixed carbon dioxide and saline” (CLOVER HILL HEALTHCARE, INC., priority 2012, dated 2016).

Test system: subjects with SAR, nasal allergen challenge (grass or ragweed allergen)

O=C=O [CO(2), carbon dioxide]
ipsilateral secretion weights (20-second exposure to CO(2) 30 minutes before allergen challenge, compared with no treatment): numerically reduced
sneezes (20-second exposure to CO(2) 30 minutes before allergen challenge, compared with no treatment, 12 subjects with SAR, p=0.05): significant reduction
bilateral runny nose symptoms (20-second exposure to CO(2) 30 minutes before allergen challenge, compared with no treatment, p=0.01): significant reduction
contralateral secretion weights (reflex secretory response, primary outcome) (20-second exposure to CO(2) 30 minutes before allergen challenge, compared with no treatment, p=0.04): significant reduction
histamine levels in ipsilateral nasal secretions (after pretreatment with CO(2), increased significantly with sham treatment): did not increase
sensation reported by subjects during exposure (during 20-second intranasal exposure to CO(2)): transient burning sensation
